Reference: ChEMBL document CHEMBL4400561, “Isolation, structural elucidation, and insights into the anti-inflammatory effects of triterpene saponins from the leaves of Stauntonia hexaphylla” (Bioorg Med Chem Lett, 2019)

Assays:
RAW264.7 [1] = experiment: Cytotoxicity against mouse RAW264.7 cells at anti-inflammatory IC50 after 19 hrs by MTT assay; format: cell-based; details: raw264.7, 19 h
RAW264.7 [2] = experiment: Anti-inflammatory activity in mouse RAW264.7 cells assessed as inhibition of LPS-induced NO production preincubated for 1 hr followed by LPS-stimulation and measured after 18 hrs by Griess reagent-based assay; format: functional, cell-based

Row | Structure (SMILES) | IC50 (RAW264.7 [2]) [µM] | Activity (RAW264.7 [1])
1 | C[C@@H]1O[C@@H](O[C@H]2[C@H](O)[C@@H](O)[C@H](OC[C@H]3O[C@@H](OC(=O)[C@]45CCC(C)(C)C[C@H]4C4=CC[C@@H]6[C@@]7(C)CC[C@H](O)[C@@](C)(CO)[C@@H]7CC[C@@]6(C)[C@]4(C)CC5)[C@H](O)[C@@H](O)[C@@H]3O)O[C@@H]2CO)[C@H](O)[C@H](O)[C@H]1O [KIZUTA CIRENSENOSIDE O SAPONIN K3] | > 50 | Non-Toxic
2 | C[C@@H]1O[C@@H](O[C@H]2[C@H](O[C@H]3CC[C@@]4(C)[C@@H](CC[C@]5(C)[C@@H]4CC=C4[C@@H]6CC(C)(C)CC[C@]6(C(=O)O[C@@H]6O[C@H](CO[C@@H]7O[C@H](CO)[C@@H](O[C@@H]8O[C@@H](C)[C@H](O)[C@@H](O)[C@H]8O)[C@H](O)[C@H]7O)[C@@H](O)[C@H](O)[C@H]6O)CC[C@]45C)[C@]3(C)CO)OC[C@H](O)[C@@H]2O)[C@H](O)[C@H](O)[C@H]1O [KALOPANAXSAPONIN B] | > 50 | Non-Toxic
3 | CC1(C)CC[C@]2(C(=O)O[C@@H]3O[C@H](CO[C@@H]4O[C@H](CO)[C@@H](O)[C@H](O)[C@H]4O)[C@@H](O)[C@H](O)[C@H]3O)CC[C@]3(C)C(=CC[C@@H]4[C@@]5(C)CC[C@H](O)C(C)(C)[C@@H]5CC[C@]43C)[C@@H]2C1 | > 50 | Non-Toxic
4 | CC1(C)CC[C@]2(C(=O)O[C@@H]3O[C@H](CO[C@@H]4O[C@H](CO)[C@@H](O)[C@H](O)[C@H]4O)[C@@H](O)[C@H](O)[C@H]3O)CC[C@]3(C)C(=CC[C@@H]4[C@@]5(C)CC[C@H](O)[C@@](C)(CO)[C@@H]5CC[C@]43C)[C@@H]2C1 [DIPSACUSSAPONIN A] | > 50 | Non-Toxic
5 | CC1(C)CC[C@]2(C(=O)O)CC[C@]3(C)C(=CC[C@@H]4[C@@]5(C)CC[C@H](O)[C@@](C)(CO[C@@H]6O[C@H](CO[C@@H]7O[C@H](CO)[C@@H](O)[C@H](O)[C@H]7O)[C@@H](O)[C@H](O)[C@H]6O)[C@@H]5CC[C@]43C)[C@@H]2C1 | > 50 | Non-Toxic
6 | C[C@@H]1O[C@@H](O[C@H]2[C@H](O)[C@@H](O)[C@H](OC[C@H]3O[C@@H](OC(=O)[C@]45CCC(C)(C)C[C@H]4C4=CC[C@@H]6[C@@]7(C)CC[C@H](O[C@@H]8OC[C@H](O)[C@H](O)[C@H]8O)[C@@](C)(CO)[C@@H]7CC[C@@]6(C)[C@]4(C)CC5)[C@H](O)[C@@H](O)[C@@H]3O)O[C@@H]2CO)[C@H](O)[C@H](O)[C@H]1O [CAULOSIDE D] | > 50 | Non-Toxic
7 | CC1(C)CC[C@]2(C(=O)O)CC[C@]3(C)C(=CC[C@@H]4[C@@]5(C)CC[C@H](O)[C@@](C)(CO[C@@H]6O[C@H](CO)[C@@H](O)[C@H](O)[C@H]6O)[C@@H]5CC[C@]43C)[C@@H]2C1 | > 50 | Non-Toxic
8 | CC1(C)CC[C@]2(C(=O)O[C@@H]3O[C@H](CO[C@@H]4O[C@H](CO)[C@@H](O)[C@H](O)[C@H]4O)[C@@H](O)[C@H](O)[C@H]3O)CC[C@]3(C)C(=CC[C@@H]4[C@@]5(C)CC[C@H](O[C@@H]6OC[C@H](O)[C@H](O)[C@H]6O)C(C)(C)[C@@H]5CC[C@]43C)[C@@H]2C1 | > 50 | Non-Toxic
9 | CC1(C)CC[C@]2(C(=O)O[C@@H]3O[C@H](CO[C@@H]4O[C@H](CO)[C@@H](O)[C@H](O)[C@H]4O)[C@@H](O)[C@H](O)[C@H]3O)CC[C@]3(C)C(=CC[C@@H]4[C@@]5(C)CC[C@H](O[C@@H]6OC[C@H](O)[C@H](O[C@@H]7O[C@H](CO)[C@@H](O)[C@H](O)[C@H]7O)[C@H]6O)C(C)(C)[C@@H]5CC[C@]43C)[C@@H]2C1 | > 50 | Non-Toxic
10 | CC1(C)CC[C@]2(C(=O)O[C@@H]3O[C@H](CO)[C@@H](O)[C@H](O)[C@H]3O)CC[C@]3(C)C(=CC[C@@H]4[C@@]5(C)CC[C@H](O)C(C)(C)[C@@H]5CC[C@]43C)[C@@H]2C1 | > 50 | Non-Toxic
11 | C=C1CC[C@]2(C(=O)O[C@@H]3O[C@H](CO[C@@H]4O[C@H](CO)[C@@H](O)[C@H](O)[C@H]4O)[C@@H](O)[C@H](O)[C@H]3O)CC[C@]3(C)C(=CC[C@@H]4[C@@]5(C)CC[C@H](O)[C@@](C)(CO)[C@@H]5CC[C@]43C)[C@@H]2C1 | > 50 | Non-Toxic
12 | C[C@@H]1O[C@@H](O[C@H]2[C@H](O)[C@@H](O)[C@H](OC[C@H]3O[C@@H](OC(=O)[C@]45CCC(C)(C)C[C@H]4C4=CC[C@@H]6[C@@]7(C)CC[C@H](O)C(C)(C)[C@@H]7CC[C@@]6(C)[C@]4(C)CC5)[C@H](O)[C@@H](O)[C@@H]3O)O[C@@H]2CO)[C@H](O)[C@H](O)[C@H]1O [CIRENSENOSIDE O] | > 50 | Non-Toxic
13 | CC1(C)CC[C@]2(C(=O)O[C@@H]3O[C@H](CO[C@@H]4O[C@H](CO)[C@@H](O)[C@H](O)[C@H]4O)[C@@H](O)[C@H](O)[C@H]3O)CC[C@]3(C)C(=CC[C@@H]4[C@@]5(C)CC[C@H](O[C@@H]6OC[C@H](O)[C@H](O)[C@H]6O[C@@H]6O[C@H](CO)[C@@H](O)[C@H](O)[C@H]6O)C(C)(C)[C@@H]5CC[C@]43C)[C@@H]2C1 | > 50 | Non-Toxic
14 | C=C1CC[C@]2(C(=O)O[C@@H]3O[C@H](CO[C@@H]4O[C@H](CO)[C@@H](O[C@@H]5O[C@@H](C)[C@H](O)[C@@H](O)[C@H]5O)[C@H](O)[C@H]4O)[C@@H](O)[C@H](O)[C@H]3O)CC[C@]3(C)C(=CC[C@@H]4[C@@]5(C)CC[C@H](O)C(C)(C)[C@@H]5CC[C@]43C)[C@@H]2C1 | > 50 | Non-Toxic

Second part, led by results:

Row | IC50 (RAW264.7 [2]) [µM] | Structure (SMILES) | Activity (RAW264.7 [1])
15 | > 50 | C=C1CC[C@]2(C(=O)O[C@@H]3O[C@H](CO[C@@H]4O[C@H](CO)[C@@H](O)[C@H](O)[C@H]4O)[C@@H](O)[C@H](O)[C@H]3O)CC[C@]3(C)C(=CC[C@@H]4[C@@]5(C)CC[C@H](O)C(C)(C)[C@@H]5CC[C@]43C)[C@@H]2C1 | Non-Toxic
16 | > 50 | CC1(C)CC[C@]2(C(=O)O[C@@H]3O[C@H](CO[C@@H]4O[C@H](CO)[C@@H](O)[C@H](O)[C@H]4O)[C@@H](O)[C@H](O)[C@H]3O)CC[C@]3(C)C(=CC[C@@H]4[C@@]5(C)CC[C@H](O[C@@H]6OC[C@H](O)[C@H](O)[C@H]6O)[C@@](C)(CO)[C@@H]5CC[C@]43C)[C@@H]2C1 | Non-Toxic
17 | > 50 | CC1(C)CC[C@]2(C(=O)O[C@@H]3O[C@H](CO[C@@H]4O[C@H](CO)[C@@H](O)[C@H](O)[C@H]4O)[C@@H](O)[C@H](O)[C@H]3O)CC[C@]3(C)C(=CC[C@@H]4[C@@]5(C)CC[C@H](O[C@@H]6OC[C@H](O)[C@H](O)[C@H]6O[C@@H]6O[C@H](CO)[C@@H](O)[C@H](O)[C@H]6O)[C@@](C)(CO)[C@@H]5CC[C@]43C)[C@@H]2C1 | Non-Toxic
18 | 0.13 | C[C@@H]1C[C@H]2[C@@H]3CCC4=CC(=O)C=C[C@]4(C)[C@@]3(F)[C@@H](O)C[C@]2(C)[C@@]1(O)C(=O)CO [DEXAMETHASONE] | Non-Toxic
19 | > 50 | C[C@@H]1O[C@@H](O[C@H]2[C@H](O[C@H]3CC[C@]4(C)[C@H]5CC=C6[C@@H]7CC(C)(C)CC[C@]7(C(=O)O)CC[C@@]6(C)[C@]5(C)CC[C@H]4C3(C)C)OC[C@H](O)[C@@H]2O[C@@H]2O[C@H](CO)[C@@H](O)[C@H](O)[C@H]2O)[C@H](O)[C@H](O)[C@H]1O | Non-Toxic
20 | > 50 | C=C1CC[C@]2(C(=O)O[C@@H]3O[C@H](CO[C@@H]4O[C@H](CO)[C@@H](O)[C@H](O)[C@H]4O)[C@@H](O)[C@H](O)[C@H]3O)CC[C@]3(C)C(=CC[C@@H]4[C@@]5(C)CC[C@H](O[C@@H]6OC[C@H](O)[C@H](O)[C@H]6O[C@@H]6O[C@H](CO)[C@@H](O)[C@H](O)[C@H]6O)C(C)(C)[C@@H]5CC[C@]43C)[C@@H]2C1 | Non-Toxic
21 | > 50 | C=C1CC[C@]2(C(=O)O[C@@H]3O[C@H](CO[C@@H]4O[C@H](CO)[C@@H](O[C@@H]5O[C@@H](C)[C@H](O)[C@@H](O)[C@H]5O)[C@H](O)[C@H]4O)[C@@H](O)[C@H](O)[C@H]3O)CC[C@]3(C)C(=CC[C@@H]4[C@@]5(C)CC[C@H](O[C@@H]6OC[C@H](O)[C@H](O)[C@H]6O)[C@@](C)(CO)[C@@H]5CC[C@]43C)[C@@H]2C1 | Non-Toxic
22 | 16.6 | C=C1CC[C@]2(C(=O)O)CC[C@]3(C)C(=CC[C@@H]4[C@@]5(C)CC[C@H](O[C@@H]6OC[C@H](O)[C@H](O)[C@H]6O[C@@H]6O[C@H](CO)[C@@H](O)[C@H](O)[C@H]6O)C(C)(C)[C@@H]5CC[C@]43C)[C@@H]2C1 | Non-Toxic
